Assay results taken from patent US8324176B2, “Pyrazole derivatives, medicinal composition containing the same, medicinal use thereof, and intermediate for production thereof” (Kissei Pharmaceutical Co., Ltd., priority 2002, dated 2012).

target: T1, human SGLT1 (Homo sapiens, UniProt P13866); assay: Assay for inhibitory effects on human SGLT1 activity (uptake of methyl-α-D-glucopyranoside in CS1-5-11D cells); type: cell-based; conditions: CHO-K1 cells stably expressing human SGLT1 (CS1-5-11D); 1 mM α-MG uptake, 37° C., 1 hour
T1 construct: expressed in transfected cells
T1 sequence (P13866 1-664): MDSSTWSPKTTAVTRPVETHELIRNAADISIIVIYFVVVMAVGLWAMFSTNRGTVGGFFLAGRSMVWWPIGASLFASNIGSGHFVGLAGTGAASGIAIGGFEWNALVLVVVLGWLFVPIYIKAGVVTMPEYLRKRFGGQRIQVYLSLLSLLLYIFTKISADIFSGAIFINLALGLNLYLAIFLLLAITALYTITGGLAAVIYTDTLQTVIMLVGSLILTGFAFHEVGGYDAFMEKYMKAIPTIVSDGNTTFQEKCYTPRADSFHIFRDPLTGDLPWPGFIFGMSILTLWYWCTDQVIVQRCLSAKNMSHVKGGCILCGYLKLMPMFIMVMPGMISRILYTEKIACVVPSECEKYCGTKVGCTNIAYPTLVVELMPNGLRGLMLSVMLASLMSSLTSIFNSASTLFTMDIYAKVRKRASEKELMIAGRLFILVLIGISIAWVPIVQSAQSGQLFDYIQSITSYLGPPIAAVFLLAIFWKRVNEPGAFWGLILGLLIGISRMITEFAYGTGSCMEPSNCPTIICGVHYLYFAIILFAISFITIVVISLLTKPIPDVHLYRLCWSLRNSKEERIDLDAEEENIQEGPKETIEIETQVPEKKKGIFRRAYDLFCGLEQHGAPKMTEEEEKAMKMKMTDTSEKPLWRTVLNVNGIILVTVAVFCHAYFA
Protocol: Assay for Inhibitory Effects on Human SGLT1 Activity
1) Cloning and Construction of the Vector Expressing Human SGLT1
The cDNA library was prepared for PCR amplification by reverse transcription from total RNA deprived from human small intestine (Ori gene) using oligo-dT as a primer.
2) Establishment of Cell Line Stably Expressing Human SGLT1
The expression vector of human SGLT1 was digested by Sca I into a linear DNA. The linear DNA was transfected into CHO-K1 cells by means of lipofection (Effectene Transfection Reagent: QIAGEN). Neomycin resistant cell lines were selected by culture in the medium containing G418 (1 mg/mL, LIFE TECHNOLOGIES), and then the activity against the uptake of methyl-α-D-glucopyranoside was measured by the method described below. […] CS1-5-11D cells were cultured in the presence of G418 at 200 μg/mL.
3) Measurement of the Inhibitory Activity Against the Uptake of Methyl-α-D-glucopyranoside (α-MG)
CS1-5-11D cells were seeded into a 96-well culture plate at a density of 3×10^4 cells/well and cultured for 2 days, and were used in the uptake assay. A mixture of non-labeled (Sigma) and ^14C-labeled α-MG (Amersham Pharmcia Biotec) was added to the uptake buffer (pH 7.4: containing 140 mM sodium chloride, 2 mM potassium chloride, 1 mM calcium chloride, 1 mM magnesium chloride, 10 mM 2-[4-(2-hydroxyethyl)-1-piperazinyl]ethane sulfonic acid, and 5 mM tris(hydroxymethyl)aminomethane) at the final concentration of 1 mM. A test compound was dissolved in dimethyl sulfoxide, and then appropriately diluted with distilled water. The test compound solution was added to the uptake buffer containing 1 mM α-MG, and designated as a measurement buffer. For the control group, the measurement buffer without any test compound was prepared. For measuring the basal uptake, a basal uptake measurement buffer which contains 140 mM chorine chloride instead of sodium chloride was prepared. After removing the culture medium of CS1-5-11D cells, 180 μL of the pre-treatment buffer (the basal uptake buffer without α-MG) was added to each well and incubated at 37° C. for 10 minutes. After repeating the same treatment, the pre-treatment buffer was removed. To each well was added 75 μL of the measurement buffer or the basal uptake buffer was added and incubated at 37° C. for 1 hour. After removing the measurement buffer, cells were washed twice with 180 μL per well of the washing buffer (the basal uptake buffer containing 10 mM non-labeled α-MG). The cells were solubilized by 75 μL per well of 0.2 mol/L sodium hydroxide. The cell lysates were transferred into PicoPlates (Packard), and then added 150 μL of MicroScint-40 (Packard) and mixed. Radioactivity was measured by means of micro-scintillation counter TopCount (Packard). One hundred was set to the difference between the uptake in the control group and the basal uptake, and the uptake of methyl α-D-glucopyranoside a teach drug concentration were calculated.

| IC50 [nM] | SMILES |
| --- | --- |
| 246 | CC(C)c1[nH]nc(O[C@@H]2O[C@H](CO)[C@@H](O)[C@H](O)[C@H]2O)c1Cc1ccc(OCCCNS(N)(=O)=O)cc1 [Example 38, 3-(β-D-Glucopyranosyloxy)-5-isopropyl-4-({4-[3-(sulfamoylamino)propoxy]phenyl}methyl)-1H-pyrazole] |
| 100 | Cc1cc(OCCCNCCO)ccc1Cc1c(O[C@@H]2O[C@H](CO)[C@@H](O)[C@H](O)[C@H]2O)n[nH]c1C(C)C [Example 58, 3-(β-D-Glucopyranosyloxy)-4-({4-[3-(2-hydroxyethylamino)propoxy]-2-methylphenyl}methyl)-5-isopropyl-1H-pyrazole] |
| 166 | Cc1cc(OCCNC(=O)NC(C)(C)C(N)=O)ccc1Cc1c(O[C@@H]2O[C@H](CO)[C@@H](O)[C@H](O)[C@H]2O)n[nH]c1C(C)C [Example 31, 4-{[4-(2-{3-[1-Carbamoyl-1-(methyl)ethyl]ureido}ethoxy)-2-methylphenyl]methyl}-3-(β-D-glucopyranosyloxy)-5-isopropyl-1H-pyrazole] |
| 90 | Cc1cc(OCCCNC(=O)NC(C)(CO)CO)ccc1Cc1c(O[C@@H]2O[C@H](CO)[C@@H](O)[C@H](O)[C@H]2O)n[nH]c1C(C)C [Example 28, 3-(β-D-Glucopyranosyloxy)-4-{[4-(3-{3-[2-hydroxy-1-(hydroxymethyl)-1-(methyl)ethyl]ureido}propoxy)-2-methylphenyl]methyl}-5-isopropyl-1H-pyrazole] |
| 148 | Cc1cc(OCCNCC(N)=O)ccc1Cc1c(O[C@@H]2O[C@H](CO)[C@@H](O)[C@H](O)[C@H]2O)n[nH]c1C(C)C [Example 49, 4-({4-[2-(Carbamoylmethylamino)ethoxy]-2-methylphenyl}methyl)-3-(1-D-glucopyranosyloxy)-5-isopropyl-1H-pyrazole] |
| 199 | CC(C)c1[nH]nc(O[C@@H]2O[C@H](CO)[C@@H](O)[C@H](O)[C@H]2O)c1Cc1ccc(OCCCNC(C)(C)CO)cc1 [Example 61, 3-(β-D-Glucopyranosyloxy)-4-[(4-(3-[2-hydroxy-1,1-di(methyl)ethylamino]propoxy)phenyl)methyl]-5-isopropyl-1H-pyrazole] |
| 19 | Cc1cc(OCCCNC(=O)NC(C)(C)CO)ccc1Cc1c(O[C@@H]2O[C@H](CO)[C@@H](O)[C@H](O)[C@H]2O)n[nH]c1C(C)C [Example 29, 3-(β-D-Glucopyranosyloxy)-4-{[4-(3-(3-[2-hydroxy-1,1-di(methyl)ethyl]ureido)propoxy)-2-methylphenyl]methyl}-5-isopropyl-1H-pyrazole] |
| 138 | Cc1cc(OCCNC(CO)CO)ccc1Cc1c(O[C@@H]2O[C@H](CO)[C@@H](O)[C@H](O)[C@H]2O)n[nH]c1C(C)C [Example 62, 3-(β-D-Glucopyranosyloxy)-4-[(4-{2-[2-hydroxy-1-(hydroxymethyl)ethylamino]ethoxy}-2-methylphenyl)methyl]-5-isopropyl-1H-pyrazole] |
| 159 | Cc1cc(OCCNCCC(N)=O)ccc1Cc1c(O[C@@H]2O[C@H](CO)[C@@H](O)[C@H](O)[C@H]2O)n[nH]c1C(C)C [Example 50] |
| 22 | Cc1cc(OCCCNC(C)(C)C(N)=O)ccc1Cc1c(O[C@@H]2O[C@H](CO)[C@@H](O)[C@H](O)[C@H]2O)n[nH]c1C(C)C [Example 51, 4-[(4-{3-[1-Carbamoyl-1-(methyl)ethylamino]propoxy}-2-methylphenyl)methyl]-3-(β-D-glucopyranosyloxy)-5-isopropyl-1H-pyrazole] |
| 113 | Cc1cc(OCCNC(=O)NC(C)(CO)CO)ccc1Cc1c(O[C@@H]2O[C@H](CO)[C@@H](O)[C@H](O)[C@H]2O)n[nH]c1C(C)C [Example 32, 3-(β-D-Glucopyranosyloxy)-4-{[4-(2-{3-[2-hydroxy-1-(hydroxymethyl)-1-(methyl)ethyl]ureido}ethoxy)-2-methylphenyl]methyl}-5-isopropyl-1H-pyrazole] |
| 43 | Cc1cc(OCCCNC(C)(C)CO)ccc1Cc1c(O[C@@H]2O[C@H](CO)[C@@H](O)[C@H](O)[C@H]2O)n[nH]c1C(C)C [Example 57, 3-(β-D-Glucopyranosyloxy)-4-[(4-(3-[2-hydroxy-1,1-di(methyl)ethylamino]propoxy)-2-methylphenyl)methyl]-5-isopropyl-1H-pyrazole] |
| 42 | Cc1cc(OCCCN)ccc1Cc1c(O[C@@H]2O[C@H](CO)[C@@H](O)[C@H](O)[C@H]2O)n[nH]c1C(C)C [Example 9, 4-{[4-(3-Aminopropoxy)-2-methylphenyl]methyl}-3-(β-D-glucopyranosyloxy)-5-isopropyl-1H-pyrazole] |
| 65 | Cc1cc(OCCNC(=O)NC(C)(C)CO)ccc1Cc1c(O[C@@H]2O[C@H](CO)[C@@H](O)[C@H](O)[C@H]2O)n[nH]c1C(C)C [Example 33, 3-(β-D-Glucopyranosyloxy)-4-{[4-(2-{3-[2-hydroxy-1,1-di(methyl)ethyl]ureido}ethoxy)-2-methylphenyl]methyl}-5-isopropyl-1H-pyrazole] |
| 257 | Cc1cc(OCCCNC(=O)NCCO)ccc1Cc1c(O[C@@H]2O[C@H](CO)[C@@H](O)[C@H](O)[C@H]2O)n[nH]c1C(C)C [Example 30, 3-(β-D-Glucopyranosyloxy)-4-[(4-(3-[3-(2-hydroxyethyl)ureido]propoxy)-2-methylphenyl)methyl]-5-isopropyl-1H-pyrazole] |
| 54 | CC(C)c1[nH]nc(O[C@@H]2O[C@H](CO)[C@@H](O)[C@H](O)[C@H]2O)c1Cc1ccc(OCCCNC(C)(C)C(N)=O)cc1 [Example 48, 4-[(4-{3-[1-Carbamoyl-1-(methyl)ethylamino]propoxy}phenyl)methyl]-3-(β-D-glucopyranosyloxy)-5-isopropyl-1H-pyrazole] |
| 383 | CNC(=NC#N)NCCCOc1ccc(Cc2c(O[C@@H]3O[C@H](CO)[C@@H](O)[C@H](O)[C@H]3O)n[nH]c2C(C)C)cc1 [Example 36, 4-({4-[3-(2-Cyano-3-methylguanidino)propoxy]phenyl}methyl)-3-(β-D-glucopyranosyloxy)-5-isopropyl-1H-pyrazole] |
| 233 | CC(C)c1[nH]nc(O[C@@H]2O[C@H](CO)[C@@H](O)[C@H](O)[C@H]2O)c1Cc1ccc(OCCCNC(=O)NC(CO)CO)cc1 [Example 22, 3-(β-D-Glucopyranosyloxy)-4-{[4-(3-{3-[2-hydroxy-1-(hydroxymethyl)ethyl]ureido}propoxy)phenyl]methyl}-5-isopropyl-1H-pyrazole] |
| 322 | Cc1cc(OCCNCCO)ccc1Cc1c(O[C@@H]2O[C@H](CO)[C@@H](O)[C@H](O)[C@H]2O)n[nH]c1C(C)C [Example 63, 3-(β-D-Glucopyranosyloxy)-4-({4-[2-(2-hydroxyethylamino)ethoxy]-2-methylphenyl}methyl)-5-isopropyl-1H-pyrazole] |
